Test results published in US9862754B2, “Peptide analogs for treating diseases and disorders” (KeyBioscience AG, priority 2011, dated 2018).
Bridge positions count the residues as written; N and C are the ends. Ends that are not written are not given here.

What was measured:
Assay type in all cases: in vivo, rat
[1] = Example 3: short-term oral treatment, body weight and food intake in DIO rats
Method: (§1) The study was performed in male Levin-DIO rats (diet-sensitive) and Levin-DR (diet-resistant) (TacLevin: CD (SD) DIO) (Taconic, Hudson, N.Y., U.S.A.) obtained at age 6-7 weeks. On arrival, DIO rats were given high fat diet (60 kcal %) (#D12495, Research Diets Inc., New Brunswick, N.J., USA) and kept on the same diet for 12 weeks prior to and during the experiment. DR rats were given low-fat diet and served as control group. Animals were pair-wise housed throughout the study. Rats were handled and pre-dosed once daily with MilliQ H2O for 2-3 weeks prior to experimental start to reduce stress-induced hyperglycemia. On the day prior to study start animals were given a single dose of vehicle. Baseline parameters were recorded in an overnight fasting (16 h) condition. Rats were randomized into treatment groups based on fasting body weight (BW) and fasting plasma glucose (FPG). Body weight, food and water intake were recorded prior to and at study end.
Animals treated with oral sCT or oral UGP284/UGP298/UGP302 received doses of 0.5 mg/kg, 1.0 mg/kg or 2.0 mg/kg combined with 150 mg/kg 5-CNAC—all dissolved in milliQ H2O.
(§2) Drug administration were given by per oral (p.o.) gavage b.i.d. during the study period and as single dose in the morning prior to start of OGTT.
Following the initial (1st) OGTT, animals were randomized into treatment groups based on FBG and BW. Animals were pre-treated 3 days (b.i.d.) prior to 2nd OGTT. The study was performed in an x-over design with each animal being its own control.
(§3) Statistical analysis was performed by one-way ANOVA followed by the Dunnett's post hoc test for multiple comparison. Student's t-test was performed to compare two paired group. All analysis was performed using GRAPHPAD PRISM software (GraphPad Prism, San Diego, Calif. U.S.A). Incremental area under curve (iAUC) during OGTT was calculated by the trapezoidal method. A value of P<0.05 was considered to be significant. All data are presented as mean±standard error of the mean (SEM).
FIG. 9A, FIG. 9B, FIG. 9C, FIG. 9D, FIG. 9E, and FIG. 9F show the effect of three different doses of oral sCT/UGP284/UGP298/UGP302 containing 0.5, 1 and 2 mg/kg compound were applied by gavage twice daily to 4 groups of rats for 3 days. * P<0.05, ** P<0.01 vs oral sCT. Results are presented as means±SEM.

[2] = Example 2: short-term oral treatment, body weight and food intake in DIO rats; settings: for food intake: 0.5, 1 and 2 mg/kg p.o. b.i.d. for 3 days; for body weight: 0.5, 1 and 2 mg/kg p.o. b.i.d. for 3 days with 150 mg/kg 5-CNAC
Method: as §1, with “hyperglycaemia.” for “hyperglycemia.”
Animals treated with oral sCT or oral calcitonin mimetic 1 received doses of 0.5 mg/kg, 1.0 mg/kg or 2.0 mg/kg combined with 150 mg/kg 5-CNAC—all dissolved in milliQ H20.
as §2
Following the initial (1st) OGTT, animals are randomized into treatment groups based on FBG and BW. Animals will be pre-treated 3 days (b.i.d.) prior to 2nd OGTT. Dosing will be performed in the morning (7-8 am) and afternoon (3-4 pm).
The study was performed in an x-over design with each animal being its own control.
Three different doses of oral sCT/calcitonin mimetic 1 containing 0.5, 1 and 2 mg/kg compound were applied by gavage twice daily to 4 groups of rats for 3 days. * P<0.05, ** P<0.01 vs oral sCT.

[3] = Example 1: chronic oral treatment, body weight and food intake in DIO rats; settings: for body weight: 4 weeks, vs oral vehicle (mimetic also vs oral sCT); for body weight / cumulative food intake: study end; for body weight / food intake: 1 mg/kg p.o. b.i.d. with 150 mg/kg 5-CNAC; for food intake: first week of treatment; for food intake / cumulative food intake: vs oral vehicle; for cumulative food intake: four weeks of treatment, 1 mg/kg p.o. b.i.d.
Method: as §1, with “for 16” for “for 12”, “stress-induced hyperglycaemia.” for “stress-induced hyperglycemia. On the day prior to study start animals were given a single dose of vehicle.”, “an” for “an overnight”, “fasting (6” for “fasting (16”, “recorded once weekly during the” for “recorded prior to and at”, “study period.” for “study end.”
Oral sCT or calcitonin mimetic 1 solution was prepared on the day of dosing by mixing a carrier with the given compound based on the following calculations:
Animals treated with oral sCT or oral calcitonin mimetic 1 received doses of 1.0 mg/kg combined with 150 mg/kg 5-CNAC—all dissolved in milliQ H20.
Drug administration by per oral (p.o.) gavage b.i.d. (7-8 am and 3-4 pm) during the study period and as single dose in the morning prior to start of OGTT.
as §3
One dose of oral sCT/calcitonin mimetic 1 containing 1 mg/kg compound was applied by gavage twice daily to four groups of rats for 4 weeks. An oral vehicle group served as dosing regimen control, respectively. * P<0.05, ** P<0.01, *** P<0.001 vs Vehicle. Results are presented as means±SEM.

[4] = Example 1: fasting glycaemia in DIO rats; settings: following 2 and 4 weeks of treatment, 1 mg/kg p.o. b.i.d.
Method: as §1, with “for 16” for “for 12”, “stress-induced hyperglycaemia.” for “stress-induced hyperglycemia. On the day prior to study start animals were given a single dose of vehicle.”, “an” for “an overnight”, “fasting (6” for “fasting (16”, “recorded once weekly during the” for “recorded prior to and at”, “study period.” for “study end.”
Blood sampling and glycemia were measured by heated tail venous puncture.
Whole blood glucose levels were determined with an ACCU-CHEK® Avia blood glucose meter (Roche Diagnostics, Rotkreuz, Switzerland). Blood (approx 300 ul) is collected in 1 ml MiniCollect K3EDTA plasma-tube (Greiner-Bio-One GmbH, Frickenhausen, Germany), inverted, and stored on ice. Tubes are centrifuged 3000×g (5000 rpm in table centrifuge) for 10 min at 4° C. and plasma obtained. Plasma samples are stored at −20° C. until analysis. […]

In the case of “Ac-CSNLSTCVLGKLSQELHKLQTYPRTDVGANAP-NH2 (Ac-CSNLSTCVLGKLSQELHKLQTYPRTDVGANAP-NH2; ends and bridges not checked) [UGP302, calcitonin mimetic]”, the “reduction in body weight vs oral sCT at same dose” value ([1]; 0.5 mg/kg p.o. b.i.d. for 3 days, DIO rats) is reported as “significantly difference to oral sCT 0.5 mg/kg”, the “energy balance vs equivalent doses of oral sCT” value ([1]; 0.5, 1 and 2 mg/kg doses p.o., male DIO rats) is reported as “superiority to equivalent doses of oral sCT” and the “reduction in body weight vs oral sCT at same dose” value ([2]; 0.5 mg/kg p.o. b.i.d. for 3 days) is reported as “significantly difference to oral sCT 0.5 mg/kg”. For the same substance, the food intake [2] was “trended dose-dependently reduced compared to oral sCT”, the body weight [2] was “dose-dependent superiority to oral sCT” and the body weight [3] was “more pronounced significant reduction in body weight”. For the same substance, the food intake [3] was “significantly reduced food intake”, the cumulative food intake [3] was “significantly reduced” and the fasting glycaemia [4] was “trend towards superiority in fasting glycaemia”.

With “salmon calcitonin (CSNLSTCVLGKLSQELHKLQTYPRTNTGSGTP-NH2; disulfide 1-7; ends not checked) [sCT, reference compound]” the body weight ([1]; 0.5, 1 and 2 mg/kg p.o. b.i.d. for 3 days with 150 mg/kg 5-CNAC, DIO rats) was “dose-dependently decreased”, the food intake ([1]; 0.5, 1 and 2 mg/kg p.o. b.i.d. for 3 days, DIO rats) was “dose-dependently decreased” and the food intake [2] was “dose-dependently decreased”. For the same substance, the body weight [2] was “dose-dependently decreased”, the body weight [3] was “significantly reduced body weight from baseline” and the food intake [3] was “significantly reduced food intake”. For the same substance, the cumulative food intake [3] was “lack of difference” and the fasting glycaemia [4] was “not significantly different from oral vehicle”.
